Values of other authors, collected in article PMC3969558 (Molecular Biology and Evolution, 2013).
No end group written: not given here.

Key:
amphioxus GnRHR3 = conditions: ref Tello and Sherwood 2009
[1] = tested on: steroidal receptors (nuclear receptors similar to the sex steroid receptors); conditions: ref Paris et al. 2008; Katsu et al. 2010

Compound | activation of GnRHR3 (earlier study) (amphioxus GnRHR3) | binding to amphioxus steroidal receptor [1]
vertebrate GnRH2: vertebrate GnRH2, present throughout the vertebrates, 10 amino acids (QHWSHGWYPG; ends and bridges not checked; UniProt O43555 24-33, looked up) | activated amphioxus GnRHR3 within the vertebrate physiological range | –
C[C@]12CC[C@@H]3c4ccc(O)cc4CC[C@H]3[C@@H]1CC[C@@H]2O [estradiol] | – | has been shown to bind one of the steroidal receptors
